Data from PMC6471528, “Biological Evaluation and Molecular Docking Studies of Dimethylpyridine Derivatives” (Molecules, 2019).

How the values were obtained:
[1] = test system: LoVo (colon adenocarcinoma); test: Sulforhodamine B cytotoxicity assay, LoVo; format: cell-based; details: Homo sapiens, SRB assay, 48 h, mean (SD), n = 3
From the text: (§1) The sulforhodamine B assay was used to estimate the cytotoxic properties of the compounds. The cytotoxic activity of dimethylpyridine derivatives was studied against human cancer cell lines: A549 (pulmonary basal cell alveolar adenocarcinoma) and LoVo (colon adenocarcinoma). Additionally, the effect of compounds on NHDF (normal human dermal fibroblasts) and normal cell line V79 (fibroblast from Chinese hamster lung) was examined.
(§2) Normal human dermal fibroblasts (NHDF) from adult donors were purchased from Lonza (Verviers, Belgium). Normal cell line V79 (fibroblast from Chinese hamster lung) and human cancer cell lines, A549 (pulmonary basal cell alveolar adenocarcinoma) and LoVo (colon adenocarcinoma) were obtained from the European Collection of Authenticated Cell Cultures (ECACC).
(§3) Cells were grown in the culture media recommended by the cell line supplier. Before the test, adherent cells were detached with the trypsin EDTA solution, and FBS-containing medium was used to neutralize the effects of the trypsin/EDTA solution. After that, cells were spun down, counted, stained with a 0.4% solution of trypan blue and inspected under a microscope for cell viability. Then, cells were placed on 96-well plastic culture plates (2 × 10^3 cells/well) and incubated at 37 °C in a CO2-incubator for 24 h. Afterwards, all the tested compounds were added at appropriate final concentrations (100 µM, 50 µM, 20 µM, 10 µM, 5 µM), and the cultures were incubated for 48 h in CO2-incubator at 37 °C. Finally, cells were harvested and intended for the cell proliferation test.
(§4) Cell density/cell proliferation was estimated with the sulforhodamine B (SRB)-colorimetric assay. Briefly, cell cultures were fixed with cold TCA (final concentration 10% (w/v) in cultures of adherent cells for 1 h at 4 °C, then washed four times with tap water and air-dried at room temperature (20–25 °C). A mildly-acidic SRB solution (0.4% dye solution in 1% acetic acid) was added to each well for 30 min at 25 °C. Then, the unbound stain was removed by rinsing with an aqueous solution of 1% (v/v) acetic acid. Culture plates were then allowed to dry at room temperature. The protein-bound dye was dissolved in 10 mM Tris base solution (pH 10.5) for 10 min on a gyratory shaker. Absorbance of the SRB solution was estimated at 540 nm in a Victor 2 microplate reader (Perkin-Elmer, Waltham, MA, USA).

[2] = test system: NHDF (normal human dermal fibroblasts); test: Sulforhodamine B cytotoxicity assay, NHDF; format: cell-based; details: SRB assay, 48 h, mean (SD), n = 3
From the text: as §1, §2, §3, §4

[3] = test system: A549 (pulmonary basal cell alveolar adenocarcinoma); test: Sulforhodamine B cytotoxicity assay, A549; format: cell-based; details: Homo sapiens, SRB assay, 48 h, mean (SD), n = 3
From the text: as §1, §2, §3, §4

[4] = test system: V79 (fibroblast from Chinese hamster lung); test: Sulforhodamine B cytotoxicity assay, V79; format: cell-based; details: Cricetulus griseus, SRB assay, 48 h, mean (SD), n = 3
From the text: as §1, §2, §3, §4

[5] = biological target: T1, COX-1 (Ovis aries, UniProt P05979); test: COX colorimetric inhibitor screening assay (TMPD oxidation), COX-1; format: biochemical; details: for IC50: read-out: IC50 (µM),(SD) COX-1; for inhibitory activity on COX-1 (in words): 2 min of incubation
T1 construct: purchased Cayman Chemical Company
T1 sequence (P05979 25-600): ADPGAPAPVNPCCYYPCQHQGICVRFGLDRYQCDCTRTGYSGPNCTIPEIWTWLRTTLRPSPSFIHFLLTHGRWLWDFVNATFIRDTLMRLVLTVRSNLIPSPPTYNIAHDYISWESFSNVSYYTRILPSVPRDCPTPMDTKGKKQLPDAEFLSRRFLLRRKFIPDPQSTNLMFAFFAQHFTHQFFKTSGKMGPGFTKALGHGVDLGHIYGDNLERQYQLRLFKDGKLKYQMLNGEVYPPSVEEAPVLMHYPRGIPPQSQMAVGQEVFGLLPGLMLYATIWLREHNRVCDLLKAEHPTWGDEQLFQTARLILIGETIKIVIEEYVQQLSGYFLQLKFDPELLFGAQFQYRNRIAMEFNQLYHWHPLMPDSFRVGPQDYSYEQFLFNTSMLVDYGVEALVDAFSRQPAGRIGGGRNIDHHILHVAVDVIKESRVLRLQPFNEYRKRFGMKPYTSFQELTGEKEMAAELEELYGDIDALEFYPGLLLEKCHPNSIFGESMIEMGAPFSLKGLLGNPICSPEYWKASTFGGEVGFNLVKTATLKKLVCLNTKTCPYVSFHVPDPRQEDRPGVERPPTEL
Description: (§5) The compounds were investigated for their potencies to inhibit COX-1 and COX-2 enzymes by the colorimetric inhibitor screening assay.
(§6) Selectivity of the compounds to COX-1 or to COX-2 was assessed by calculation of the IC50 ratios.
(§7) This method allows one to estimate the peroxidase activity of COX by colorimetric monitoring of the occurrence of the oxidized form of N,N,N′,N′-tetramethyl-p-phenylenediamine (TMPD) at 590 nm. TMPD is a substrate for most enzymes with peroxidase activity, and high throughput microplate assays using TMPD allow the rapid screening of a wide range of therapeutics that inhibit COX activity in vitro.
(§8) The test is based on the oxidation of TMPD during the reduction of PGG2 (prostaglandin G2) to PGH2, which is reflected by a change in colour, measured spectrophotometrically (Victor2 microspectrophotometer, PerkinElmer Waltham, MA, USA). The assay uses Tris-HCl buffer (0.1 M assay buffer, pH 8.0), a solution of heme in dimethylsulfoxide (DMSO), enzymes (COX-1, COX-2), arachidonic acid (100 μM), KOH (0.1 M) and a solution of TMPD. The assay mixture contains: 150 µL of assay buffer, 10 µL of heme and 10 µL of COX-1 or COX-2. In order to determine 100% enzyme activity (each COX sample was assayed in triplicate), 10 µL of the substances used as solvents (methanol, ethanol, DMSO) was added to the wells. Ten microlitres of tested inhibitors at appropriate concentrations were added to the other wells. Twenty microlitres of TMPD were added to all wells. The reaction was initiated by the addition of arachidonic acid.
(§9) The effect of tested inhibitors on COX-1 and COX-2 enzyme activity was measured by assaying the rate of TMPD oxidation within 2 min in a spectrophotometer at 590 nm.
(§10) The activity factor at 2 min of incubation with the tested compounds in comparison to the initial activity of the enzyme was determined.

[6] = biological target: T2, COX-2 (Homo sapiens, UniProt P35354); test: COX colorimetric inhibitor screening assay (TMPD oxidation), COX-2; format: biochemical; details: for Ratio: COX-2/COX-1: ratio of IC50 values COX-2/COX-1; for IC50: read-out: IC50 (µM),(SD) COX-2; for inhibitory activity on COX-2 (in words): 2 min of incubation
T2 construct: purchased Cayman Chemical Company
T2 sequence (P35354 18-604): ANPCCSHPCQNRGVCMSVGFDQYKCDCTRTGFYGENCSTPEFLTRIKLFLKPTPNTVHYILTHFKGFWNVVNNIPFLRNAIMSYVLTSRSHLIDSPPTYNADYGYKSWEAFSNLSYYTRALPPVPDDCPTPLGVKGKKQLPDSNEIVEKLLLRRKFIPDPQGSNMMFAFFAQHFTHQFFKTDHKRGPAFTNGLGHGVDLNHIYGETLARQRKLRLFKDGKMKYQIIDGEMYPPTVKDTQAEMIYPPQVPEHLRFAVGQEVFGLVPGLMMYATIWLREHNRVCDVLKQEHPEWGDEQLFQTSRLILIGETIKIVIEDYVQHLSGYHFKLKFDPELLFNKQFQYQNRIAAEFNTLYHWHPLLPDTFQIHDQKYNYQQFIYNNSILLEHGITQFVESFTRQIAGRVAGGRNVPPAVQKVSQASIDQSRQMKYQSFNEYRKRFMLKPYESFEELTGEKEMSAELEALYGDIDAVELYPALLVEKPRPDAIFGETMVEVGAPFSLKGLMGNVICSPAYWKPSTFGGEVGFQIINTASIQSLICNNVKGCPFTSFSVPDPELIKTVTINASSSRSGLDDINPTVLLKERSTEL
Description: as §5, §6, §7, §8, §9, §10

Row | Structure (SMILES) | IC50 [1] | IC50 [2] | IC50 [3] | IC50 [4] | IC50 [5] | Ratio: COX-2/COX-1 [6] | IC50 [6] | inhibitory activity on COX-1 (in words) [5] | inhibitory activity on COX-2 (in words) [6]
1 | Cc1cnc(NC(=O)C2=C(O)c3ccccc3S(=O)(=O)N2C)s1 [Meloxicam, reference compound] | 125 µM | 206 µM | 148 µM | 232 µM |  |  |  |  | 
2 | Cc1cc(C)c(C(=O)NCC(=O)N/N=C/c2ccccc2)c(S)n1 [PS18, N′-phenylmethylene derivative] | 135 µM | 171 µM | 154 µM | 275 µM | 57.3 µM | 2.4 | 139 µM |  | 
3 | Cc1ccc(/C=N/NC(=O)CNC(=O)c2c(C)cc(C)nc2S)cc1 [PS33, N′-4-methylphenylmethylene derivative] | 131 µM | 159 µM | 156 µM | 178 µM | 51.8 µM | 2.8 | 143 µM |  | 
4 | Cc1cc(C)c(C(=O)NCC(=O)N/N=C/c2cccc3ccccc23)c(S)n1 [PS34, N′-naphtylmethylene derivative] |  |  |  | 421 µM |  |  |  | no inhibitory activity | no inhibitory activity
5 | Cc1cc(C)c(C(=O)NCC(=O)N/N=C/c2c3ccccc3cc3ccccc23)c(S)n1 [PS35] | 212 µM | 202 µM |  | 196 µM |  |  |  | no inhibitory activity | no inhibitory activity
6 | Cc1cc(C)c(C(=O)NCC(=O)N/N=C/c2ccc([N+](=O)[O-])cc2)c(S)n1 [PS36] | 99.8 µM | 144 µM | 164 µM | 141 µM |  |  | 731 µM | did not show any inhibitory activity | 
7 | Cc1cc(C)c(C(=O)NCC(=O)N/N=C/c2ccc(C(F)(F)F)cc2)c(S)n1 [PS38] |  |  | 504 µM | 172 µM |  |  |  | no inhibitory activity | no inhibitory activity
8 | Cc1cc(C)c(C(=O)NCC(=O)N/N=C/c2cc([N+](=O)[O-])ccc2Cl)c(S)n1 [PS39] | 103 µM | 391 µM | 120 µM | 147 µM |  |  |  | no inhibitory activity | no inhibitory activity
9 | Cc1cc(C)c(C(=O)NCC(=O)N/N=C/c2ccc(Cl)cc2Cl)c(S)n1 [PS41] | 154 µM | 336 µM | 220 µM | 418 µM |  |  |  | no inhibitory activity | no inhibitory activity
10 | CCOc1ccccc1/C=N/NC(=O)CNC(=O)c1c(C)cc(C)nc1S [PS42] | 133 µM | 132 µM | 140 µM | 162 µM | 72.8 µM | 2.4 | 177 µM |  | 
11 | CN1C(C(=O)Nc2ccccn2)=C(O)c2ccccc2S1(=O)=O [Piroxicam, reference compound] | 122 µM |  | 138 µM | 200 µM |  |  |  |  | 
